Results on ten molecules are retold here after patent US20250122191A1, “COMPOUNDS AS BCL-2 INHIBITORS” (Fochon Biosciences, Ltd, priority 2021, published 2025).

SMILES strings stand for the structures.

In the first assay the test system is RS4;11-BCL-2 G101V cells. Nature of the assay: Cell proliferation assay (MTS), RS4;11-BCL-2 G101V engineered cells. It counts as cell-based. The following applies: Homo sapiens, 120 h, read-out: RS4, 11 BCL2-G101V IC50. From the text: MTS testing kit was purchased from Promega (Madison, WI, USA). The RPMI-1640, Fetal bovine serum and Penicillin-Streptomycin were purchased from BI (Biological Industries, Beit Haemek, Israel). Puromycin was purchased from Beyotime (shanghai, China). Dimethyl sulfoxide (DMSO) was purchased from Sigma (St. Louis., MO, USA). RS4;11-BCL-2 G101V (Cobioer Lot. #: CBD2021063013P4), RS4;11-BCL-2 D103E (Cobioer Lot. #: CBD2021063013P4), RS4;11-BCL-2 D103Y (Cobioer Lot. #: CBD2022012101P4) and RS4;11-BCL-2 F104L (Cobioer Lot. #: CBD2021063014P4) cells were cultured in RPMI1640 supplemented with 1 ug/mL puromycin, 100 U/mL Penicillin-Streptomycin and 10% FBS.
To investigate whether a compound is able to inhibit the activity of BCL-2 mutation in cells, a mechanism-based assay using engineered cell lines stably overexpressing BCL-2 mutation (RS4;11-BCL-2 G101V, RS4;11-BCL-2 D103E, RS4;11-BCL-2 D103Y, and RS4;11-BCL-2 F104L) was developed. In this assay, the inhibition of BCL-2 mutation was reflected by the inhibition of cell proliferation of engineered RS4;11 cells. Cells were plated into 96-well plates at optimized cell density (RS4;11-BCL-2 G101V: 5000 cells/well; RS4;11-BCL-2 D103E: 7500 cells/well; RS4;11-BCL-2 D103Y: 7500 cells/well; RS4;11-BCL-2 F104L: 5000 cells/well). Plates were incubated at 37° C., with 5% CO2 for 4 h (RS4;11-BCL-2 G101V, RS4;11-BCL-2 F104L) and 24 h (RS4;11-BCL-2 D103E, RS4;11-BCL-2 D103Y), respectively. Compounds were serially diluted and added to the plates with the final concentrations of 10000, 3333.3, 1111.1, 370.4, 123.5, 41.2, 13.7, 4.6 and 1.5 nM. Plates were incubated at 37° C., with 5% CO2 for 120 h (RS4; 11-BCL-2 G101V, RS4; 11-BCL-2 F104L) and 72 h (RS4;11-BCL-2 D103E, RS4;11-BCL-2 D103Y), respectively. 20 μl MTS was added into each well and the plates were incubated at 37° C., with 5% CO2 exactly for 2 h. The absorbance was measured by a microplate reader at 490 nm. IC50 values were calculated using GraphPad Prism 8.0 software.
As to `CCOc1nc2[nH]cc(F)c2cc1Oc1cc(N2CCC3(CC2)CC(N2CCN(Cc4ccc(OC)c5oc(C)nc45)C[C@H]2c2ccccc2C(C)C)C3)ccc1C(=O)NS(=O)(=O)c1cnc(NC[C@H]2CC[C@](C)(O)CC2)c([N+](=O)[O-])c1` [Example 246, 2-((6-ethoxy-3-fluoro-1H-pyrrolo[2,3-b]pyridin-5-yl)oxy)-N-((6-((((1r,4r)-4-hydroxy-4-methylcyclohexyl)methyl)amino)-5-nitropyridin-3-yl)sulfonyl)-4-(2-((R)-2-(2-isopropylphenyl)-4-((7-methoxy-2-methylbenzo[d]oxazol-4-yl)methyl)piperazin-1-yl)-7-azaspiro[3.5]nonan-7-yl)benzamide], the IC50 is 2 nM. `COc1cc(CN2CCN(C3CC4(CCN(c5ccc(C(=O)NS(=O)(=O)c6cnc(NC[C@H]7CC[C@](C)(O)CC7)c([N+](=O)[O-])c6)c(Oc6cnc7[nH]cc(F)c7c6)c5)CC4)C3)[C@H](c3ccccc3C(C)C)C2)ncc1C1CC1` [Example 251, 4-(2-((R)-4-((5-cyclopropyl-4-methoxypyridin-2-yl)methyl)-2-(2-isopropylphenyl)piperazin-1-yl)-7-azaspiro [3.5]nonan-7-yl)-2-((3-fluoro-1H-pyrrolo[2,3-b]pyridin-5-yl)oxy)-N-((6-((((1r,4r)-4-hydroxy-4-methylcyclohexyl)methyl)amino)-5-nitropyridin-3-yl)sulfonyl)benzamide]: the concentration for half-maximal inhibition (IC50) stood at 1 nM. Regarding `COc1ccc(CN2CCN(C3CC4(CCN(c5ccc(C(=O)NS(=O)(=O)c6cnc(NC[C@H]7CC[C@](C)(O)CC7)c([N+](=O)[O-])c6)c(Oc6cnc7[nH]cc(F)c7c6)c5)CC4)C3)[C@H](c3ccccc3C(C)C)C2)nc1` [Example 256, 2-((3-fluoro-1H-pyrrolo[2,3-b]pyridin-5-yl)oxy)-N-((6-((((1r,4r)-4-hydroxy-4-methylcyclohexyl)methyl)amino)-5-nitropyridin-3-yl)sulfonyl)-4-(2-((R)-2-(2-isopropylphenyl)-4-((5-methoxypyridin-2-yl)methyl)piperazin-1-yl)-7-azaspiro[3.5]nonan-7-yl)benzamide], the IC50 was 1 nM. Consider `COc1nc2[nH]cc(F)c2cc1Oc1cc(N2CCC3(CC2)CC(N2CCN(CC4CCOCC4)C[C@H]2c2ccccc2C(C)C)C3)ccc1C(=O)NS(=O)(=O)c1cnc(NC[C@H]2CC[C@](C)(O)CC2)c([N+](=O)[O-])c1` [Example 317, 2-((3-fluoro-6-methoxy-1H-pyrrolo[2,3-b]pyridin-5-yl)oxy)-N-((6-((((1r,4r)-4-hydroxy-4-methylcyclohexyl)methyl)amino)-5-nitropyridin-3-yl)sulfonyl)-4-(2-((R)-2-(2-isopropylphenyl)-4-((tetrahydro-2H-pyran-4-yl)methyl)piperazin-1-yl)-7-azaspiro[3.5]nonan-7-yl)benzamide], for which the IC50 came to 1 nM. For `COc1nc2[nH]cc(F)c2cc1Oc1cc(N2CCC3(CC2)CC(N2CCN(C4CCOCC4)C[C@H]2c2ccccc2C(C)C)C3)ccc1C(=O)NS(=O)(=O)c1cnc(NC[C@H]2CC[C@](C)(O)CC2)c([N+](=O)[O-])c1` [Example 319, 2-((3-fluoro-6-methoxy-1H-pyrrolo[2,3-b]pyridin-5-yl)oxy)-N-((6-((((1r,4r)-4-hydroxy-4-methylcyclohexyl)methyl)amino)-5-nitropyridin-3-yl)sulfonyl)-4-(2-((R)-2-(2-isopropylphenyl)-4-(tetrahydro-2H-pyran-4-yl)piperazin-1-yl)-7-azaspiro[3.5]nonan-7-yl)benzamide], the IC50 amounted to 1 nM. Still for that read-out and setting: with `CC(C)c1ccccc1[C@@H]1CN(C2CCC(O)CC2)CCN1C1CC2(CCN(c3ccc(C(=O)NS(=O)(=O)c4cnc(NC[C@H]5CC[C@](C)(O)CC5)c([N+](=O)[O-])c4)c(Oc4cnc5[nH]cc(F)c5c4)c3)CC2)C1` (stereo partly drawn) [Example 333, 2-((3-fluoro-1H-pyrrolo[2,3-b]pyridin-5-yl)oxy)-N-((6-((((1r,4r)-4-hydroxy-4-methylcyclohexyl)methyl)amino)-5-nitropyridin-3-yl)sulfonyl)-4-(2-((R)-4-(4-hydroxycyclohexyl)-2-(2-isopropylphenyl)piperazin-1-yl)-7-azaspiro [3.5]nonan-7-yl)benzamide] the figure was 1 nM. For `CC(C)c1ccccc1[C@@H]1CN(Cc2ccc3c(c2)OC(F)(F)O3)CCN1C1CC2(CCN(c3ccc(C(=O)NS(=O)(=O)c4cnc(NC[C@H]5CC[C@](C)(O)CC5)c([N+](=O)[O-])c4)c(Oc4cnc5[nH]cc(F)c5c4)c3)CC2)C1` [Example 352, 4-(2-((R)-4-((2,2-difluorobenzo[d][1,3]dioxol-5-yl)methyl)-2-(2-isopropylphenyl)piperazin-1-yl)-7-azaspiro[3.5]nonan-7-yl)-2-((3-fluoro-1H-pyrrolo [2,3-b]pyridin-5-yl)oxy)-N-((6-((((1r,4r)-4-hydroxy-4-methylcyclohexyl)methyl)amino)-5-nitropyridin-3-yl)sulfonyl)benzamide], the IC50 worked out at 1 nM. In the case of `COc1ncc(CN2CCN(C3CC4(CCN(c5ccc(C(=O)NS(=O)(=O)c6cnc(NC[C@H]7CC[C@](C)(O)CC7)c([N+](=O)[O-])c6)c(Oc6cc7c(F)c[nH]c7nc6OC)c5)CC4)C3)[C@H](c3ccccc3C(C)C)C2)cn1` [Example 359, 2-((3-fluoro-6-methoxy-1H-pyrrolo[2,3-b]pyridin-5-yl)oxy)-N-((6-((((1r,4r)-4-hydroxy-4-methylcyclohexyl)methyl)amino)-5-nitropyridin-3-yl)sulfonyl)-4-(2-((R)-2-(2-isopropylphenyl)-4-((2-methoxypyrimidin-5-yl)methyl)piperazin-1-yl)-7-azaspiro[3.5]nonan-7-yl)benzamide], the half-maximal inhibitory concentration (IC50) was 1 nM.

Turning to `COc1ncc(CN2CCN(C3CC4(CCN(c5ccc(C(=O)NS(=O)(=O)c6cnc(NC[C@H]7CC[C@](C)(O)CC7)c([N+](=O)[O-])c6)c(Oc6cnc7[nH]cc(F)c7c6)c5)CC4)C3)[C@H](c3ccccc3C(C)C)C2)cn1` [Example 360, 2-((3-fluoro-1H-pyrrolo[2,3-b]pyridin-5-yl)oxy)-N-((6-((((1r,4r)-4-hydroxy-4-methylcyclohexyl)methyl)amino)-5-nitropyridin-3-yl)sulfonyl)-4-(2-((R)-2-(2-isopropylphenyl)-4-((2-methoxypyrimidin-5-yl)methyl)piperazin-1-yl)-7-azaspiro[3.5]nonan-7-yl)benzamide], the half-maximal inhibitory concentration (IC50) was found to be 1 nM.

The subject of the next assay is Toledo cells. The assay is described as follows: Cell proliferation assay (MTS), Toledo cells. It counts as cell-based. The following applies: Homo sapiens, 72 h. On the procedure: MTS testing kit was purchased from Promega (Madison, WI, USA). The RPMI-1640, Fetal bovine serum and Penicillin-Streptomycin were purchased from BI (Biological Industries, Beit Haemek, Israel). Dimethyl sulfoxide (DMSO) was purchased from Sigma (St. Louis., MO, USA). Toledo (ATCC catalog #: CRL-2631) cells were cultured in RPMI-1640 supplemented with Penicillin-Streptomycin and 10% FBS.
To investigate whether a compound is able to inhibit the activity of BCL-2 in cells, a mechanism-based assay using Toledo lines was developed. In this assay, the inhibition of BCL-2 was reflected by the inhibition of cell proliferation of Toledo cells. Cells were plated into 96-well plates at the optimized cell density of 30000 cells/well. Plates were incubated at 37° C., with 5% CO2 for 4 h. Compounds were serially diluted and added to the plates with the final concentrations of 10000, 3333.3, 1111.1, 370.4, 123.5, 41.2, 13.7, 4.6 and 1.5 nM. Plates were incubated at 37° C., with 5% CO2 for 72 h. 20 μl MTS was added into each well and the plates were incubated at 37° C., with 5% CO2 for exactly 2 h. The absorbance was measured by a microplate reader at 490 nm. IC50 was calculated using GraphPad Prism 5.0 software.
Take `COc1cc(CN2CCC(N3CC4(CCN(c5ccc(C(=O)NS(=O)(=O)c6cnc(NC[C@H]7CC[C@](C)(O)CC7)c([N+](=O)[O-])c6)c(Oc6cc7c(F)c[nH]c7nc6OC)c5)CC4)C3)C(c3ccccc3C(C)C)C2)ccc1C1CC1` (stereo partly shown) [Example 24, 4-(2-(1-(4-cyclopropyl-3-methoxybenzyl)-3-(2-isopropylphenyl)piperidin-4-yl)-2,7-diazaspiro[3.5]nonan-7-yl)-2-((3-fluoro-6-methoxy-1H-pyrrolo[2,3-b]pyridin-5-yl)oxy)-N-((6-((((1r,4r)-4-hydroxy-4-methylcyclohexyl)methyl)amino)-5-nitropyridin-3-yl)sulfonyl)benzamide]: half-maximal inhibition (IC50) was put at 1 nM.
